Test results: patent EP4389751A1, “HETEROCYCLIC COMPOUNDS AND USES THEREOF” (Kumquat Biosciences Inc., priority 2021, dated 2024)
Where two headings read alike, the source gives them in different places.

Assays:
[1] = target: T1, KRAS protein (His-tagged GDP-loaded G12S 1-169) (Homo sapiens, UniProt P01116, G12S); experiment: Covalent modification of KRAS protein, intact-protein LC-MS; type: binding; settings: 24hrs at room temperature, KRAS protein ~2 µM
T1 construct: His-tagged GDP-loaded G12S 1-169
Method in brief: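 Percent covalent modification derives from deconvoluted intact-mass intensities of compound-adducted versus unmodified KRAS, measured by LC-ESI-MS. Before analysis, ~2 µM GDP-loaded His-KRAS 1-169 was exposed to compound for 24 h at room temperature and acidified with formic acid.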

GP2D cells = experiment: Cell proliferation assay (CellTiter-Glo), K-Ras G12D cells; type: cell-based; settings: read-out: Inhibition of GP2D Cells (IC50)
Method in brief: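 CellTiter-Glo luminescence, taken roughly 5 days after dosing, measured growth of G12D-mutant GP2D cells in DMEM/2 mM glutamine/10% FBS. Compound dilution series (e.g., 9 points, 3-fold) added the day after plating. Four-parameter fitting gave IC50.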

A549 cells = experiment: Cell proliferation assay (CellTiter-Glo), K-Ras G12S cells; type: cell-based; settings: for IC50: Homo sapiens; for ratio of IC50 against a G12D cell line to IC50 against a G12S cell line: K-Ras G12D cell line such as GP2D relative to K-Ras G12S cell line such as A549, greater than 1, 2, 3, 4, 5, 10, 15 or even greater, 8640 min
Procedure: A549 (ATCC CRL-185) and LS123 (ATCC CRL-255) cell lines comprise a G12S mutation and can be used to assess Ras cellular signaling in vitro, e.g., in response to the compounds herein. A549 culture medium is prepared with RPMI-1640 and 10% heat-inactivated FBS. LS123 culture medium is prepared with RPMI-1640 and 10% heat-inactivated FBS. A CellTiter-Glo (CTG) luminescent based assay (Promega) is used to assess growth of the cells, as a measurement of the ability of the compounds herein to inhibit Ras signaling in the cells. The cells (e.g., 800 per well) are seeded in their respective culture medium in standard tissue culture-treated 384-well format plates (Falcon #08-772-116) or ultra-low attachment surface 384-well format plates (S-Bio # MS-9384WZ). The day after plating, cells are treated with a dilution series (e.g., a 10 point 3-fold dilution series) of the compounds herein (e.g., approximately 40 µl final volume per well). Cell viability can be monitored (e.g., approximately 6 days later) according to the manufacturer's recommended instructions, where the CellTiter-Glo reagent is added (e.g., approximately 10 µl), vigorously mixed, covered, and placed on a plate shaker (e.g., approximately for 20 min) to ensure sufficient cell lysis prior to assessment of luminescent signal. The IC50 values are determined using the four parameter fit. The resulting IC50 value is a measurement of the ability of the compounds herein to reduce cell growth of Ras-driven cells (e.g., tumor cell lines) in vitro and/or in vivo.

K-Ras G12S = target: T2, K-Ras G12S (Homo sapiens, UniProt P01116, G12S); experiment: HTRF assay of the K-Ras / SOS1 interaction; type: biochemical; settings: IC50 (against K-Ras G12D) to IC50 (against K-Ras G12S)
T2 construct: made in house; host or cells: E. coli (e.g., BL21 (DE3))
Method in brief: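 Compounds (duplicates, 10 µM to 0.01 µM) were incubated ≥~10 min with Eu-labelled GST-K-Ras G12S and XL665-labelled His-hSOS1 in HEPES pH 7.4 buffer containing NaCl, DTT, BSA and Igepal. Disruption measured as HTRF emission ratio 665/620 nm, fitted to IC50.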

[2] = A549, A549 cells (K-Ras G12S), bin ≤ 500 nM, read-out: Inhibition of A549 Cells (IC50)
[3] = A549, A549 cells (K-Ras G12S), bin 500 nM to 5 µM, read-out: Inhibition of A549 Cells (IC50)

Structure (SMILES)	% G12S Modification at 24 hr. [1]	IC50 (GP2D cells; GP2D cells (K-Ras G12D)) [nM]	IC50 (A549 cells; [2]) [nM]	Ratio of IC50 KRAS G12D vs. IC50 KRAS G12S (K-Ras G12S)	IC50 (GP2D cells; GP2d) [nM]	IC50 (A549 cells; A549, read-out: Inhibition of A549 Cells (IC50)) [nM]	IC50 (A549 cells; [3]) [nM]	ratio of IC50 against a G12D cell line to IC50 against a G12S cell line (A549 cells)
C#Cc1c(F)ccc2cc(O)cc(-c3ncc4c(N5CCCC6(CN(C(=O)n7cncn7)C6)C5)nc(OC[C@@]56CCCN5C[C@H](F)C6)nc4c3F)c12 [Compound A133, (6-(7-(8-ethynyl-7-fluoro-3-hydroxynaphthalen-1-yl)-8-fluoro-2-(((2R,7aS)-2-fluorotetrahydro-1H-pyrrolizin-7a(5H)-yl)methoxy)pyrido[4,3-d]pyrimidin-4-yl)-2,6-diazaspiro[3.5]nonan-2-yl)(1H-1,2,4-triazol-1-yl)methanone]	+++ (+++ indicates greater than 20% labelling)	1000 to 10000	≤ 500	–	–	–	–	–
N#Cc1c(N)sc2c(F)ccc(-c3c(Cl)cc4c(N5CC6CCC(C5)N6C(=O)n5cncn5)nc(OC[C@@]56CCCN5C[C@H](F)C6)nc4c3F)c12 [Compound A260, 4-(4-(8-(1H-1,2,4-triazole-1-carbonyl)-3,8-diazabicyclo[3.2.1]octan-3-yl)-6-chloro-8-fluoro-2-(((2R,7aS)-2-fluorotetrahydro-1H-pyrrolizin-7a(5H)-yl)methoxy)quinazolin-7-yl)-2-amino-7-fluorobenzo[b]thiophene-3-carbonitrile]	–	≤ 1000	≤ 500	A (A: indicates that the ratio of IC50 against KrasG12D vs. IC50 against KrasG12S is 1-fold or greater)	–	–	–	–
Nc1nc2c(-c3c(Cl)cc4c(N5CC6CCC(C5)N6C(=O)n5ccnn5)nc(OC[C@@]56CCCN5C[C@H](F)C6)nc4c3F)ccc(F)c2s1 [Compound A153, (3-(7-(2-amino-7-fluorobenzo[d]thiazol-4-yl)-6-chloro-8-fluoro-2-(((2R,7aS)-2-fluorotetrahydro-1H-pyrrolizin-7a(5H)-yl)methoxy)quinazolin-4-yl)-3,8-diazabicyclo[3.2.1]octan-8-yl)(1H-1,2,3-triazol-1-yl)methanone]	–	–	–	A (A: indicates that the ratio of IC50 against KrasG12D vs. IC50 against KrasG12S is 1-fold or greater)	≤ 1000	500 to 5000	–	–
N#Cc1c(N)sc2c(F)ccc(-c3c(Cl)cc4c(N5CCOC6(CN(C(=O)n7cncn7)C6)C5)nc(OC[C@@]56CCCN5C[C@H](F)C6)nc4c3F)c12 [Compound A162, 4-(4-(2-(1H-1,2,4-triazole-1-carbonyl)-5-oxa-2,8-diazaspiro[3.5]nonan-8-yl)-6-chloro-8-fluoro-2-(((2R,7aS)-2-fluorotetrahydro-1H-pyrrolizin-7a(5H)-yl)methoxy)quinazolin-7-yl)-2-amino-7-fluorobenzo[b]thiophene-3-carbonitrile]	+++ (+++ indicates greater than 20% labelling)	–	≤ 500	A (A: indicates that the ratio of IC50 against KrasG12D vs. IC50 against KrasG12S is 1-fold or greater)	–	–	–	–
N#Cc1c(N)sc2c(F)ccc(-c3c(Cl)cc4c(N5CC6CCC(C5)N6C(=O)n5cc(C(F)(F)F)cn5)nc(OC[C@@]56CCCN5C[C@H](F)C6)nc4c3F)c12 [Compound A122, 2-amino-4-(6-chloro-8-fluoro-2-(((2R,7aS)-2-fluorotetrahydro-1H-pyrrolizin-7 a(5H)-yl)methoxy)-4-(8-(4-(trifluoromethyl)-1H-pyrazole-1-carbonyl)-3,8-diazabicyclo[3.2.1]octan-3-yl)quinazolin-7-yl)-7-fluorobenzo[b]thiophene-3-carbonitrile]	–	≤ 1000	–	A (A: indicates that the ratio of IC50 against KrasG12D vs. IC50 against KrasG12S is 1-fold or greater)	–	–	500 to 5000	–
N#Cc1c(N)sc2c(F)ccc(-c3c(Cl)cc4c(N5CCCC6C5CCN6C(=O)n5cncn5)nc(OC[C@@]56CCCN5C[C@H](F)C6)nc4c3F)c12 (stereo partly drawn) [Compound A184, 4-(4-(1-(1H-1,2,4-triazole-1-carbonyl)octahydro-4H-pyrrolo[3,2-b]pyridin-4-yl)-6-chloro-8-fluoro-2-(((2R,7aS)-2-fluorotetrahydro-1H-pyrrolizin-7a(5H)-yl)methoxy)quinazolin-7-yl)-2-amino-7-fluorobenzo[b]thiophene-3-carbonitrile]	–	≤ 1000	≤ 500	A (A: indicates that the ratio of IC50 against KrasG12D vs. IC50 against KrasG12S is 1-fold or greater)	–	–	–	greater than 1
N#Cc1ccn(C(=O)N2C3CCC2CN(c2nc(OC[C@@]45CCCN4C[C@H](F)C5)nc4c(F)c(-c5ccc(F)c6sc(N)nc56)c(Cl)cc24)C3)n1 [Compound A245, 1-(3-(7-(2-amino-7-fluorobenzo[d]thiazol-4-yl)-6-chloro-8-fluoro-2-(((2R,7aS)-2-fluorotetrahydro-1H-pyrrolizin-7a(5H)-yl)methoxy)quinazolin-4-yl)-3,8-diazabicyclo[3.2. 1]octane-8-carbonyl)-1H-pyrazole-3-carbonitrile]	–	≤ 1000	–	A (A: indicates that the ratio of IC50 against KrasG12D vs. IC50 against KrasG12S is 1-fold or greater)	–	–	500 to 5000	–
N#Cc1c(N)sc2c(F)ccc(-c3c(Cl)cc4c(N5CC6CCN(C(=O)n7cncn7)C6C5)nc(OC[C@@]56CCCN5C[C@H](F)C6)nc4c3F)c12 (stereo partly drawn) [Compound A180, 4-(4-(1-(1H-1,2,4-triazole-1-carbonyl)hexahydropyrrolo[3,4-b]pyrrol-5(1H)-yl)-6-chloro-8-fluoro-2-(((2R,7aS)-2-fluorotetrahydro-1H-pyrrolizin-7a(5H)-yl)methoxy)quinazolm-7-yl)-2-amino-7-fluorobenzo[b]thiophene-3-carbonitrile]	–	1000 to 10000	≤ 500	A (A: indicates that the ratio of IC50 against KrasG12D vs. IC50 against KrasG12S is 1-fold or greater)	–	–	–	–
Cc1ncn(C(=O)N2CCCC(Oc3nc(OC[C@@]45CCCN4C[C@H](F)C5)nc4c(F)c(-c5ccc(F)c6sc(N)c(C#N)c56)c(Cl)cc34)CC2)n1 (stereo partly drawn) [Compound A174, 2-amino-4-(6-chloro-8-fluoro-2-(((2R,7aS)-2-fluorotetrahydro-1H-pyrrolizin-7 a(5H)-yl)methoxy)-4-((1-(3-methyl-1H-1 ,2,4-triazole-1-carbonyl)azepan-4-yl)oxy)quinazolin-7-yl)-7-fluorobenzo[b]thiophene-3-carbonitrile]	–	1000 to 10000	–	A (A: indicates that the ratio of IC50 against KrasG12D vs. IC50 against KrasG12S is 1-fold or greater)	–	–	500 to 5000	–
N#Cc1c(N)sc2c(F)ccc(-c3c(Cl)cc4c(N5CC(F)(F)C6(CN(C(=O)n7cncn7)C6)C5)nc(OC[C@@]56CCCN5C[C@H](F)C6)nc4c3F)c12 [Compound A199, 2-amino-4-(6-chloro-4-(8,8-difluoro-2-(1H-1,2,4-triazole-1-carbonyl)-2,6-diazaspiro[3.4]octan-6-yl)-8-fluoro-2-(((2R,7aS)-2-fluorotetrahydro-1H-pyrrolizin-7a(5H)-yl)methoxy)quinazolm-7-yl)-7-fluorobenzo[b]thiophene-3-carbonitrile]	+++ (+++ indicates greater than 20% labelling)	–	–	A (A: indicates that the ratio of IC50 against KrasG12D vs. IC50 against KrasG12S is 1-fold or greater)	–	–	–	greater than 1
